Data set [1] relates to HT-22. Kind of data set: Neuroprotective activity against amyloid beta (1 to 42 residues)-induced cell death in mouse HT22 cells assessed as increase in cell viability at 5 uM after 24 hrs by MTT assay (reference value: 51.2%). The format is functional.
In data set [2] the test system is HT-22. Kind of data set: Neuroprotective activity against amyloid beta (1 to 42 residues)-induced cell death in mouse HT22 cells assessed as increase in cell viability at 1 uM after 24 hrs by MTT assay (reference value: 51.2%). The class given is functional.
For data set [3], the system named is HT-22. Kind of data set: Neuroprotective activity against amyloid beta (1 to 42 residues)-induced cell death in mouse HT22 cells assessed as increase in cell viability at 20 uM after 24 hrs by MTT assay (reference value: 51.2%). The class given is functional.
The target in data set [4] is Beta-secretase 1 (Homo sapiens) (UniProt P56817). Kind of data set: Inhibition of BACE1 (unknown origin) at 10 uM measured after 60 mins by FRET assay.
Data set [5] has as its system HT-22. Kind of data set: Cytotoxicity against mouse HT-22 cells assessed as reduction in cell viability at 40 uM after 24 hrs by MTT assay. The class given is cell-based. Particulars: ht-22, 24 h.
The test system of data set [6] is BV-2. Kind of data set: Cytotoxicity against mouse BV2 cells assessed as reduction in cell viability at 40 uM after 18 hrs by MTT assay. The class given is cell-based. Particulars: bv-2, 18 h.

Structures are written as SMILES. Calls of active or inactive are those of the source. No cut-off for these calls is given here.

Chain of Beta-secretase 1 (Homo sapiens) (P56817 whole entry): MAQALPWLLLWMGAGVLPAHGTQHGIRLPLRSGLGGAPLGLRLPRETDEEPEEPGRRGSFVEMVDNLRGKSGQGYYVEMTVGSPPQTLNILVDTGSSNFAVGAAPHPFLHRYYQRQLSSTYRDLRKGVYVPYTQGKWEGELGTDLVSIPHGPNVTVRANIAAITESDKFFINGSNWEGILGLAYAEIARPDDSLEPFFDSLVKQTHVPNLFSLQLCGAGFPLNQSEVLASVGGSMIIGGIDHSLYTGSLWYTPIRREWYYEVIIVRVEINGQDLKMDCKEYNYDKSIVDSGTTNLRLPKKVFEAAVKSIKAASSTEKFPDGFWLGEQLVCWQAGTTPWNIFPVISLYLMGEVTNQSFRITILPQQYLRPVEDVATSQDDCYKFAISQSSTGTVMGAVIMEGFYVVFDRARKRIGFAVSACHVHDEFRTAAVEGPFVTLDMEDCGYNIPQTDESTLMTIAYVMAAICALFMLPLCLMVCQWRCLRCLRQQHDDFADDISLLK

Turning to `CC1(C)CC[C@]2(C(=O)O)CC[C@]3(C)C(=CC[C@@H]4[C@@]5(C)CC[C@H](O)C(C)(C)C5CC[C@]43C)[C@@H]2C1` (some centres undefined), the Activity in data set [1] stood at 58.6%. Regarding `CC1(C)CC[C@]2(O)[C@H](O)C[C@]3(C)C(=CC[C@@H]4[C@@]5(C)CC[C@H](O)C(C)(C)[C@@H]5CC[C@]43C)[C@@H]2C1`, in data set [2], the Activity was 61.9%. With `CC1(C)CC[C@]2(O)C(=O)C[C@]3(C)C(=CC[C@@H]4[C@@]5(C)CC[C@H](O[C@@H]6O[C@H](C(=O)O)[C@@H](O)[C@H](O[C@@H]7O[C@H](CO)[C@@H](O)[C@H](O)[C@H]7O[C@@H]7O[C@H](CO)[C@@H](O)[C@H](O)[C@H]7O)[C@H]6O)C(C)(C)[C@@H]5CC[C@]43C)[C@@H]2C1`, the Activity in data set [3] is reported as 68.9%. Same read-out and setting: then `COC(=O)CC[C@@]1(C)C(C(C)(C)O)C[C@H](O)[C@]2(C)[C@@H]1CC=C1[C@@H]3C[C@](C)(CO)CC[C@]3(O)C(=O)C[C@]12C` (some centres undefined), with 68.9%.

As to `O=c1c(O)c(-c2ccc(O)c(O)c2)oc2cc(O)cc(O)c12`, the inhibition entry in data set [4] is “Active”.

In the case of `CC(C)(O)C1CC[C@]2(C)[C@H](CC=C3[C@@H]4C[C@](C)(CO)CC[C@]4(O)C(=O)C[C@]32C)[C@@]1(C)CCC(=O)O` (some centres undefined), the Activity in data set [3] stood at 68.9%. As to `C=C(C)C1CC[C@]2(C)[C@H](CC=C3[C@@H]4C[C@](C)(CO)CC[C@]4(O)C(=O)C[C@]32C)[C@@]1(C)CCC(=O)O` (some centres undefined), the Activity in data set [3] is listed as 68.9%. Same read-out and setting: then `CC1(C)CC[C@]2(CO)C(=O)C[C@]3(C)C(=CC[C@@H]4[C@@]5(C)CC[C@H](O[C@@H]6O[C@H](C(=O)O)[C@@H](O)[C@H](O)[C@H]6O)C(C)(C)[C@@H]5CC[C@]43C)[C@@H]2C1`, with 55.5%. As for `CCOC(=O)[C@H]1O[C@@H](O[C@H]2CC[C@]3(C)[C@H]4CC=C5[C@@H]6CC(C)(C)CC[C@]6(O)C(=O)C[C@@]5(C)[C@]4(C)CC[C@H]3C2(C)C)[C@H](O)[C@@H](O)[C@@H]1O`, in data set [2], the Activity was 68.9%.

Take `CC1(C)CC[C@]2(C(=O)O)C(=O)C[C@]3(C)C(=CC[C@@H]4[C@@]5(C)CC[C@H](O[C@@H]6O[C@H](C(=O)O)[C@@H](O)[C@H](O)[C@H]6O)C(C)(C)[C@@H]5CC[C@]43C)[C@@H]2C1`: the Activity in data set [3] is 72%. Turning to `CC(=O)O[C@H]1CC[C@]2(C)[C@H]3CC=C4[C@@H]5CC(C)(C)CC[C@]5(C(=O)O)CC[C@@]4(C)[C@]3(C)CC[C@H]2C1(C)C` [ACETYL OLEANOLIC ACID], the Activity in data set [2] came to 56.3%. For the molecule `CC1(C)CC[C@]2(O)C(=O)C[C@]3(C)C(=CC[C@@H]4[C@@]5(C)CCC(=O)C(C)(C)[C@@H]5CC[C@]43C)[C@@H]2C1`, the Activity in data set [3] is given as 68.9%. Same read-out and setting: then `COC(=O)CC[C@@]1(C)C(C(C)(C)O)C[C@H](O)[C@]2(C)[C@@H]1CC=C1[C@@H]3CC(C)(C)CC[C@]3(O)C(=O)C[C@]12C` (some centres undefined), with 68.9%. For the molecule `CC(=O)O[C@H]1CC[C@]2(C)[C@H]3C=CC4=C5CC(C)(C)CC[C@]5(C(=O)O)CC[C@@]4(C)[C@]3(C)CC[C@H]2C1(C)C`, the Activity in data set [2] amounted to 68.9%. Consider `CC1(C)CC[C@]2(O)C(=O)C[C@]3(C)C(=CC[C@@H]4[C@@]5(C)CC[C@H](O[C@@H]6O[C@H](C(=O)O)[C@@H](O)[C@H](O)[C@H]6O)C(C)(C)[C@@H]5CC[C@]43C)[C@@H]2C1`, for which the Activity in data set [1] is recorded as 68.9%. Turning to `CCCCOC(=O)CC[C@]1(C)[C@H]2CC=C3[C@@H]4C[C@](C)(CO)CC[C@]4(O)C(=O)C[C@@]3(C)[C@]2(C)[C@@H](O)C[C@H]1C(C)(C)O`, the Activity entry in data set [5] and in data set [6] was “Non-Toxic” in each case. With `C=C(C)[C@@H]1C[C@H](O)[C@]2(C)[C@H](CC=C3[C@@H]4C[C@](C)(CO)CC[C@]4(O)C(=O)C[C@]32C)[C@@]1(C)CCC(=O)OC`, the Activity result in data set [5] and in data set [6] was “Non-Toxic” each time. Turning to `COC(=O)CC[C@@]1(C)C(C(C)(C)O)CC[C@]2(C)[C@@H]1CC=C1[C@@H]3C[C@](C)(CO)CC[C@]3(CO)C(=O)C[C@]12C` (some centres undefined), in data set [3], the Activity worked out at 68.9%. On to `CC1(C)CC[C@]2(O)C(=O)C[C@]3(C)C(=CC[C@@H]4[C@@]5(C)CC[C@H](O[C@@H]6O[C@H](C(=O)O)[C@@H](O)[C@H](O[C@@H]7O[C@H](CO)[C@@H](O)[C@H](O)[C@H]7O[C@@H]7O[C@H](CO)[C@@H](O)[C@H](O)[C@H]7O)[C@H]6O[C@H]6O[C@@H](CO)[C@H](O)[C@@H](O)[C@@H]6O)C(C)(C)[C@@H]5CC[C@]43C)[C@@H]2C1`, for which the Activity in data set [1] turned out to be 68.9%. For the molecule `CC1(C)CC[C@]2(O)C(=O)C[C@]3(C)C(=CC[C@@H]4[C@@]5(C)CC[C@H](O)C(C)(C)[C@@H]5CC[C@]43C)[C@@H]2C1`, in data set [2], the Activity is on record as 68.9%. As for `CC1(C)CCC2C(=O)C[C@]3(C)C(=C2C1)C=C[C@@H]1[C@@]2(C)CC[C@H](O)C(C)(C)C2CC[C@]13C` (some centres undefined), in data set [1], the Activity is recorded as 68.9%. The same measure, in the same setting: under `CC1(C)CC[C@]2(O)C(=O)C[C@]3(C)C(=CC[C@@H]4[C@@]5(C)CC[C@H](O[C@@H]6O[C@H](CO)[C@@H](O)[C@H](O[C@@H]7O[C@H](CO)[C@@H](O)[C@H](O)[C@H]7O[C@@H]7O[C@H](CO)[C@@H](O)[C@H](O)[C@H]7O)[C@H]6O[C@H]6O[C@@H](CO)[C@H](O)[C@@H](O)[C@@H]6O)C(C)(C)[C@@H]5CC[C@]43C)[C@@H]2C1` stands 68.9%. For the molecule `CC1(C)CC[C@]2(CO)[C@H](O)C[C@]3(C)C(=CC[C@@H]4[C@@]5(C)CC[C@H](O)C(C)(C)[C@@H]5CC[C@]43C)[C@@H]2C1` [PRIMULAGENIN], in data set [2], the Activity is on record as 60.5%. Consider `CC(=O)O[C@H]1CC[C@@]2(C)C(CC[C@]3(C)[C@@H]2C(=O)C=C2[C@@H]4CC(C)(C)CC[C@]4(C)CC[C@]23C)C1(C)C` (some centres undefined), for which, in data set [1], the Activity was found to be 68.9%. Regarding `CC(C)(O)C1C[C@H](O)[C@]2(C)[C@H](CC=C3[C@@H]4C[C@](C)(CO)CC[C@]4(O)C(=O)C[C@]32C)[C@@]1(C)CCC(=O)O` (some centres undefined), the Activity in data set [3] came out at 68.9%. On the same count and under the same terms, under `COC(=O)CC[C@@]1(C)C(C(C)(C)O)CC[C@]2(C)[C@@H]1CC=C1[C@@H]3C[C@](C)(CO)CC[C@]3(O)C(=O)C[C@]12C` (some centres undefined) stands 68.9%; under `CC1(C)CC[C@]2(C(=O)O)C(=O)C[C@]3(C)C(=CC[C@@H]4[C@@]5(C)CC[C@H](O[C@@H]6O[C@H](C(=O)O)[C@@H](O)[C@H](O[C@@H]7O[C@H](CO)[C@@H](O)[C@H](O)[C@H]7O[C@@H]7O[C@H](CO)[C@@H](O)[C@H](O)[C@H]7O)[C@H]6O[C@H]6O[C@@H](CO)[C@H](O)[C@@H](O)[C@@H]6O)C(C)(C)[C@@H]5CC[C@]43C)[C@@H]2C1`, 61.7%.

These data come from ChEMBL document CHEMBL4665685, “Neuroprotective Effects of Triterpenoids from Camellia japonica against Amyloid β-Induced Neuronal Damage” (J Nat Prod, 2020).
